PubChem BioAssay AID1259411 (Chemical Carcinogenesis Research Information System (CCRIS), 2018)
The source made the active and inactive calls. The rule behind the calls is not given here.

System: rodent carcinogenicity bioassays, tumor incidence
Experiment: CCRIS carcinogenicity studies
Method in brief: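 NCI-built, expert-reviewed records of carcinogenicity and related test outcomes (mutagenicity, tumor promotion/inhibition) compiled from published and report sources, historical span 1985-2011, not updated.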

**Q.** Which carcinogen call (Species: MOUSE, Strain/Sex: CD-1/FEMALE, Route: ORAL, Dose: 0, 0.37, 1.39, 5.19% IN DIET FOR LIFE TO OFFSPRING OF ANIMALS ADMINISTERED THE SAME DOSES DURING BREEDING, GESTATION AND, Dose: 0, 0.37, 1.39, 5.19% IN DIET FOR LIFE TO OFFSPRING OF ANIMALS ADMINISTERED THE SAME DOSES DURING BREEDING, GESTATION AND) does the source give for `COc1cc(S(=O)(=O)O)c(C)cc1N=Nc1c(O)ccc2cc(S(=O)(=O)O)ccc12` here?
**A.** inactive; negative

**Q.** What about the carcinogen call (Species: MOUSE, Strain/Sex: CD-1/MALE, Route: ORAL, Dose: 0, 0.37, 1.39, 5.19% IN DIET FOR LIFE TO OFFSPRING OF ANIMALS ADMINISTERED THE SAME DOSES DURING BREEDING, GESTATION AND, Dose: 0, 0.37, 1.39, 5.19% IN DIET FOR LIFE TO OFFSPRING OF ANIMALS ADMINISTERED THE SAME DOSES DURING BREEDING, GESTATION AND) of the same compound?
**A.** inactive; negative

**Q.** And the carcinogen call (Species: MOUSE, Strain/Sex: HAM/ICR/FEMALE, Route: ORAL, Dose: 0, 0.37, 1.39, 5.19% IN DIET FOR LIFE TO OFFSPRING OF ANIMALS ADMINISTERED THE SAME DOSES DURING BREEDING, GESTATION AND, Dose: 0, 0.37, 1.39, 5.19% IN DIET FOR LIFE TO OFFSPRING OF ANIMALS ADMINISTERED THE SAME DOSES DURING BREEDING, GESTATION AND)?
**A.** inactive; negative

**Q.** What about the carcinogen call (Species: MOUSE, Strain/Sex: HAM/ICR/MALE, Route: ORAL, Dose: 0, 0.37, 1.39, 5.19% IN DIET FOR LIFE TO OFFSPRING OF ANIMALS ADMINISTERED THE SAME DOSES DURING BREEDING, GESTATION AND, Dose: 0, 0.37, 1.39, 5.19% IN DIET FOR LIFE TO OFFSPRING OF ANIMALS ADMINISTERED THE SAME DOSES DURING BREEDING, GESTATION AND) of the same compound?
**A.** inactive; negative

**Q.** And the carcinogen call (Species: RAT, Strain/Sex: SPRAGUE-DAWLEY/FEMALE, Route: ORAL, Dose: 0, 0.37, 1.39, 5.19% OF DIET BEGINNING WITH PARENTAL GENERATION AND CONTINUING WITH THE OFFSPRING FOLLOWING WEANING (STU, Dose: 0, 0.37, 1.39, 5.19% OF DIET BEGINNING WITH PARENTAL GENERATION AND CONTINUING WITH THE OFFSPRING FOLLOWING WEANING (STU)?
**A.** inactive; negative

**Q.** And the carcinogen call (Species: RAT, Strain/Sex: SPRAGUE-DAWLEY/MALE, Route: ORAL, Dose: 0, 0.37, 1.39, 5.19% OF DIET BEGINNING WITH PARENTAL GENERATION AND CONTINUING WITH THE PUPS FOLLOWING WEANING (STUDY DU, Dose: 0, 0.37, 1.39, 5.19% OF DIET BEGINNING WITH PARENTAL GENERATION AND CONTINUING WITH THE PUPS FOLLOWING WEANING (STUDY DU)?
**A.** inactive; negative

**Q.** What does the source list for `COC(=O)N(C(=O)N1CO[C@@]2(C(=O)OC)Cc3cc(Cl)ccc3C2=N1)c1ccc(OC(F)(F)F)cc1`?
**A.** carcinogen call (Species: Mouse, Strain/Sex: Crl:CD-1(ICR)BR/Female (70/Group), Route: Oral, Dose: 0, 20, 100, 125/150/200 ppm for 18 mo, study duration 18 mo, Dose: 0, 20, 100, 125/150/200 ppm for 18 mo, study duration 18 mo): inactive; negative; carcinogen call (Species: Mouse, Strain/Sex: Crl:CD-1(ICR)BR/Male (70/Group), Route: Oral, Dose: 0, 20, 100, 125/150/200 ppm for 18 mo, study duration 18 mo, Dose: 0, 20, 100, 125/150/200 ppm for 18 mo, study duration 18 mo): inactive; negative

**Q.** For `CC(=O)CNCC(O)C(O)N=O` (configuration not stated), which carcinogen call (Species: RAT, Strain/Sex: F344/FEMALE, Route: ORAL, Dose: 0, 15, 60 MG/L DRINKING WATER 5 D/WK FOR 31, 24 WK (TOTAL DOSE 47; 144 MG) (STUDY DURATION: LIFESPAN), Dose: 0, 15, 60 MG/L DRINKING WATER 5 D/WK FOR 31, 24 WK (TOTAL DOSE 47; 144 MG) (STUDY DURATION: LIFESPAN), Tumor Site: Type of Lesion: ESOPHAGUS: CARCINOMA, PAPILLOMA, FORESTOMACH: CARCINOMA, PAPILLOMA, LUNG: TUMOR, TONGUE: CARCINOMA, PAPILLOMA, Tumor Site: Type of Lesion: ESOPHAGUS: CARCINOMA, PAPILLOMA, FORESTOMACH: CARCINOMA, PAPILLOMA, LUNG: TUMOR, TONGUE: CARCINOMA, PAPILLOMA) is on record?
**A.** active; positive

**Q.** `ClC1=C(Cl)[C@]2(Cl)[C@@H]3[C@@H]4C[C@@H]([C@H]5O[C@@H]45)[C@@H]3[C@@]1(Cl)C2(Cl)Cl` was tested. Which carcinogen call (Species: MOUSE, Strain/Sex: B6C3F1/FEMALE, Route: ORAL, Dose: 0, 2.5, 5 PPM IN DIET FOR 80 WK (STUDY DURATION: 90-93 WK), Dose: 0, 2.5, 5 PPM IN DIET FOR 80 WK (STUDY DURATION: 90-93 WK)) did it give?
**A.** inactive; negative

**Q.** What about the carcinogen call (Species: MOUSE, Strain/Sex: B6C3F1/MALE, Route: ORAL, Dose: 0, 2.5, 5 PPM IN DIET FOR 80 WK (STUDY DURATION: 90-93 WK), Dose: 0, 2.5, 5 PPM IN DIET FOR 80 WK (STUDY DURATION: 90-93 WK), Tumor Site: Type of Lesion: LIVER: HEPATOCELLULAR CARCINOMA) of the same compound?
**A.** equivocal

**Q.** What about the carcinogen call (Species: MOUSE, Strain/Sex: B6C3F1/MALE, Route: ORAL, Dose: 0, 2.5, 5 PPM IN DIET FOR 80 WK (STUDY DURATION: 91-93 WK), Dose: 0, 2.5, 5 PPM IN DIET FOR 80 WK (STUDY DURATION: 91-93 WK), Tumor Site: Type of Lesion: LIVER: HEPATOCELLULAR CARCINOMA) of the same compound?
**A.** active; positive

**Q.** What about the carcinogen call (Species: MOUSE, Strain/Sex: B6C3F1/MALE, Route: ORAL, Dose: 0, 10 PPM IN DIET FOR 85 WK (STUDY DURATION: 132 WK), Tumor Site: Type of Lesion: LIVER: TUMORS) of the same compound?
**A.** active; positive

**Q.** And the carcinogen call (Species: MOUSE, Strain/Sex: BALB/MALE, Route: ORAL, Dose: 0, 10 PPM (WT/WT) IN CORN OIL ADDED TO DIET FOR 75 WK (STUDY DURATION: 75 WK), Tumor Site: Type of Lesion: LIVER: HEPATOCELLULAR ADENOMA, HEPATOCELLULAR CARCINOMA)?
**A.** active; positive

**Q.** And the carcinogen call (Species: MOUSE, Strain/Sex: C3H/MALE, Route: ORAL, Dose: 0, 10 PPM IN DIET FOR 85 WK (STUDY DURATION: 132 WK), Tumor Site: Type of Lesion: LIVER: TUMORS)?
**A.** active; positive

**Q.** And the carcinogen call (Species: MOUSE, Strain/Sex: C57BL/MALE, Route: ORAL, Dose: 0, 10 PPM IN DIET FOR 85 WK (STUDY DURATION: 132 WK), Tumor Site: Type of Lesion: LIVER: TUMORS)?
**A.** active; positive

**Q.** And the carcinogen call (Species: MOUSE, Strain/Sex: CF-1/MALE,FEMALE, Route: ORAL, Dose: 0, 0.1, 1, 2.5, 5, 10, 20 PPM IN DIET CONTINUOUSLY, Dose: 0, 0.1, 1, 2.5, 5, 10, 20 PPM IN DIET CONTINUOUSLY, Tumor Site: Type of Lesion: LIVER)?
**A.** active; positive

**Q.** What about the carcinogen call (Species: MOUSE, Strain/Sex: CF-1/MALE,FEMALE, Route: ORAL, Dose: 0, 0.1, 1.0, 10 PPM IN DIET FOR 132 WK, Dose: 0, 0.1, 1.0, 10 PPM IN DIET FOR 132 WK, Tumor Site: Type of Lesion: LIVER) of the same compound?
**A.** active; positive

**Q.** What about the carcinogen call (Species: MOUSE, Strain/Sex: CF-1/MALE,FEMALE, Route: ORAL, Dose: 0, 1.25, 2.5, 5, 10, 20 PPM IN DIET FOR 128 WK, Dose: 0, 1.25, 2.5, 5, 10, 20 PPM IN DIET FOR 128 WK, Tumor Site: Type of Lesion: LIVER) of the same compound?
**A.** active; positive

**Q.** What about the carcinogen call (Species: MOUSE, Strain/Sex: CF-1/MALE,FEMALE, Route: ORAL, Dose: 0, 10 PPM IN DIET FOR 2 YR OR MORE, Tumor Site: Type of Lesion: LIVER) of the same compound?
**A.** active; positive

**Q.** What about the carcinogen call (Species: MOUSE, Strain/Sex: CF-1/MALE,FEMALE, Route: ORAL, Dose: 0, 10 PPM IN DIET FOR UP TO 110 WK, Tumor Site: Type of Lesion: LIVER: HEPATOCELLULAR TUMOR) of the same compound?
**A.** active; positive

**Q.** What about the carcinogen call (Species: MOUSE, Strain/Sex: CF-1/MALE,FEMALE, Route: ORAL, Dose: 10 PPM IN DIET FOR 0, 2, 4, 8, 16, 32 OR 64 WK, Tumor Site: Type of Lesion: LIVER: HEPATOCELLULAR TUMOR) of the same compound?
**A.** active; positive

**Q.** And the carcinogen call (Species: RAT, Strain/Sex: OSBORNE-MENDEL/FEMALE, Route: ORAL, Dose: 0, 29, 65 PPM TWA, IN DIET FOR 59-80 WK (STUDY DURATION: 110-111 WK), Dose: 0, 29, 65 PPM TWA, IN DIET FOR 59-80 WK (STUDY DURATION: 110-111 WK))?
**A.** inactive; negative

**Q.** What about the carcinogen call (Species: RAT, Strain/Sex: OSBORNE-MENDEL/MALE, Route: ORAL, Dose: 0, 29, 65 PPM TWA, IN DIET FOR 59-80 WK (STUDY DURATION: 110-111 WK), Dose: 0, 29, 65 PPM TWA, IN DIET FOR 59-80 WK (STUDY DURATION: 110-111 WK)) of the same compound?
**A.** inactive; negative

**Q.** Which results are given for `O=C(O)[C@@H]1[C@H](C(=O)O)[C@H]2CC[C@@H]1O2`?
**A.** carcinogen call (Species: Mouse, Strain/Sex: Crl, CD-1(ICR)BR/Male and female (60/Group), Route: Oral, Dose: 0, 750, 1500 ppm of endothal disodium, purity 19-23.1%, in diet for at least 78 wk, study duration 18 mo, Dose: 0, 750, 1500 ppm of endothal disodium, purity 19-23.1%, in diet for at least 78 wk, study duration 18 mo, Tumor Site: Type of Lesion: Duodenum and jejunum: increased incidence of tumors in high dose group): active; positive (results not described separately for each sex); carcinogen call (Species: Rat, Strain/Sex: Cr, CD(SD)BR/Female (62/group), Route: Oral, Dose: Nominal concentrations of 0, 300, 900, 1800 ppm in diet for 104 wk, study duration 104 wk (actual concentration about 18, 300, 900, Tumor Site: Type of Lesion: Uterus: endometrial stromal tumors (0, 0, 4/60, 5/59)): active; positive (ca department of pesticide regulation evaluator described as a possibl; carcinogen call (Species: Rat, Strain/Sex: Cr, CD(SD)BR/Male (62/group), Route: Oral, Dose: Nominal concentrations of 0, 300, 900, 1800 ppm in diet for 104 wk, study duration 104 wk (actual concentration about 18, 300, 900): inactive; negative
